Holding throughout (format): binding
In assay [1] the target is T1, human serotonin transporter (hSERT) (Homo sapiens, UniProt P31645).
T1 construct: expressed in transfected cells; Tatsumi et al. 1997
Briefly: Screening for human serotonin transporter (hSERT) antagonists, scintillation proximity assay (SPA). The conditions noted are these: competition with [3H]-Citalopram; membranes of HEK-293 cells expressing recombinant hSERT. The method, then:
The screening assay of this example was used to determine the affinity of ligands at the hSERT transporter by competition with [^3H]-Citalopram.
Scintillation Proximity Assay (SPA) works by bringing radioligand within close proximity to the bead's scintillant to stimulate light emission. In this assay, the receptor-containing membranes were pre-coupled to the SPA beads and the binding of the appropriate radioligand to the transporter was measured. The light emission was proportional to the amount of bound radioligand. Unbound radioligand produced no signal as a result of distant proximity to scintillant (lack of energy transfer). […]
(§1) Cell membranes were prepared using a membrane preparation buffer of 50 mM TRIS (pH 7.4). […] After a second centrifugation, the pellet was re-homogenized and brought to a final volume determined during the assay. […]
The % inhibition was calculated for each compound tested [(Compound counts per minute (CPM) at maximum concentration-Non-Specific CPM)/Total CPM*100]. […]
(§2) [formula] where max=total binding, min=non specific binding, x=concentration (M) of the tested compound and n=Hill slope. The inhibition dissociation constant (Ki) of each compound was determined according to the method of Cheng-Prusoff and then converted into negative logarithm (pKi) of the Ki.
A general note: Scintillation proximity formats need no separation of bound from free tracer.

In assay [2] the target is T2, human norepinephrine transporter (hNET) (Homo sapiens, UniProt P23975).
T2 construct: expressed in transfected cells; Clone: HEK-hNET #2)
In words: Screening for compounds active at human norepinephrine transporter (hNET), scintillation proximity assay (SPA). The note with it: competition with [3H]-Nisoxetine; membranes of HEK-293 cells expressing recombinant hNET. The method, then: This assay was used to determine the affinity of ligands for the hNET transporter by competition with [^3H]-Nisoxetine. As in the hSERT assay of the above example, receptor-containing membranes were pre-coupled to the SPA beads and the binding of the appropriate radioligand to the transporter was measured. The light emission was proportional to the amount of bound radioligand, with unbound radioligand producing no signal.
HEK-293 cells (Tatsumi et al., Eur. J. Pharmacol. 1997, 30, 249-258) stably expressing recombinant hNET (Clone: HEK-hNET #2) were maintained with media (DMEM hi glucose with 10% FBS, 300 μg/ml G418 and 2 mM L-Glutamine) and incubated at 37° C. with 5% CO2. Cells were released from culture flasks using PBS for 1-2 minutes. […]
as §1
^3[H] […] The mixtures were allowed to stand at room temperature for one hour, and were then counted on a Packard TopCount LCS, a generic SPA counting protocol settings (Energy Range: Low, Efficiency Mode: Normal, Region A: 1.50-35.00, Region B: 1.50-256.00, Count Time (min.): 0.40, Background Subtract: none, Half-Life Correction: no, Quench Indicator: tSIS, Platemap blank subtraction: No, Cross talk reduction: Off). […]

The target of assay [3] is T3, human dopamine transporter (hDAT) (Homo sapiens, UniProt Q01959).
T3 construct: expressed in transfected cells; Tatsumi et al. 1997
Briefly: Screening for compounds active at human dopamine transporter, scintillation proximity assay (SPA). The conditions noted are these: competition with [3H]-Vanoxerine; HEK-293 cells expressing recombinant hDAT. The method, then: This assay was used to determine the affinity of ligands for the dopamine transporter by competition with [^3H]-Vanoxerine.
HEK-293 cells (Tatsumi et al., Eur. J. Pharmacol. 1997, 30, 249-258) stably expressing recombinant hDAT were maintained with media (DMEM hi glucose with 10% FBS, 300 μg/ml G418 and 2 mM L-Glutamine) and incubated at 37° C. with 5% CO2. Cells were plated four hours prior to experiment by placing approximately 30,000 cells per well (in PBS) on white, opaque Cell-Tak coated 96 well plates. Extra buffer was apriated from the cell plates using an ELx405 plate washer.
^3[H] vanoxerine (GBR 12909) radioligand, specific activity approximately 59 Ci/mmol, stock concentration, 400 nM, and 50 mM Tris-HCl, 300 mM NaCl, (pH 7.4) buffers were used for Scintillation Proximity Assay IC50/Ki determination. […]
The % inhibition was calculated for each compound tested [(Compound CPM at maximum concentration-Non-Specific CPM)/Total CPM*100]. […]
as §2

SMILES strings stand for the structures.

T1 sequence (P31645 whole entry): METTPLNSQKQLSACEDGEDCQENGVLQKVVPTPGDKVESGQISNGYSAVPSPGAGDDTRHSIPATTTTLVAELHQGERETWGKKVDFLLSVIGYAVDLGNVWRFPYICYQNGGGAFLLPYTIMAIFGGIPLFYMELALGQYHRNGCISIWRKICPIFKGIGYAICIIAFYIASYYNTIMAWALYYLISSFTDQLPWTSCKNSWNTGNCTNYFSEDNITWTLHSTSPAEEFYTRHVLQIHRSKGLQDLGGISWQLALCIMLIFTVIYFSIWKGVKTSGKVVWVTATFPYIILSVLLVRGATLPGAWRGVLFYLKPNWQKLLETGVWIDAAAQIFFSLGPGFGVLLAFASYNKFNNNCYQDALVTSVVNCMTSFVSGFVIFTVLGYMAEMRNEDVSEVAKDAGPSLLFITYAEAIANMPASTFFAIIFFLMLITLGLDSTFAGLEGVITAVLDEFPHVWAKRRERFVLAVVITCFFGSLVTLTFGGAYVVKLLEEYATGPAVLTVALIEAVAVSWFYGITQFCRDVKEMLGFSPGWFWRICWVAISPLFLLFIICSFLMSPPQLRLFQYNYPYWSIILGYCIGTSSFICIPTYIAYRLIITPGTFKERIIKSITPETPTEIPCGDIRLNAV
T3 sequence (Q01959 whole entry): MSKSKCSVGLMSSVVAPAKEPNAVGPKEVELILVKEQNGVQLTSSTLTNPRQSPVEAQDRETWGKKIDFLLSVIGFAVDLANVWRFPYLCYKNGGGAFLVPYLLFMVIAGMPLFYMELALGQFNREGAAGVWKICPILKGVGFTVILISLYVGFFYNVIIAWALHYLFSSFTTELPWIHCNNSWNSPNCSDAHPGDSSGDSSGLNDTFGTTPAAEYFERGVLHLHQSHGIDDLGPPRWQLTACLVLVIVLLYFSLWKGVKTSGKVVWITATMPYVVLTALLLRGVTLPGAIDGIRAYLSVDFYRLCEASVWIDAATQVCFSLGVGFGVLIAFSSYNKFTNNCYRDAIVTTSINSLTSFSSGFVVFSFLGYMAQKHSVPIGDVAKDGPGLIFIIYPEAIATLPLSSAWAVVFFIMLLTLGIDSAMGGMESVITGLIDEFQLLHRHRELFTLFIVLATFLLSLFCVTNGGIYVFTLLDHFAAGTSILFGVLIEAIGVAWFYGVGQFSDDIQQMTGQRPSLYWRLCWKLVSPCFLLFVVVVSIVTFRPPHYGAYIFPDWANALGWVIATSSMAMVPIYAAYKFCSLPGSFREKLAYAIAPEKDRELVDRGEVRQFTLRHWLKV
T2 sequence (P23975 whole entry): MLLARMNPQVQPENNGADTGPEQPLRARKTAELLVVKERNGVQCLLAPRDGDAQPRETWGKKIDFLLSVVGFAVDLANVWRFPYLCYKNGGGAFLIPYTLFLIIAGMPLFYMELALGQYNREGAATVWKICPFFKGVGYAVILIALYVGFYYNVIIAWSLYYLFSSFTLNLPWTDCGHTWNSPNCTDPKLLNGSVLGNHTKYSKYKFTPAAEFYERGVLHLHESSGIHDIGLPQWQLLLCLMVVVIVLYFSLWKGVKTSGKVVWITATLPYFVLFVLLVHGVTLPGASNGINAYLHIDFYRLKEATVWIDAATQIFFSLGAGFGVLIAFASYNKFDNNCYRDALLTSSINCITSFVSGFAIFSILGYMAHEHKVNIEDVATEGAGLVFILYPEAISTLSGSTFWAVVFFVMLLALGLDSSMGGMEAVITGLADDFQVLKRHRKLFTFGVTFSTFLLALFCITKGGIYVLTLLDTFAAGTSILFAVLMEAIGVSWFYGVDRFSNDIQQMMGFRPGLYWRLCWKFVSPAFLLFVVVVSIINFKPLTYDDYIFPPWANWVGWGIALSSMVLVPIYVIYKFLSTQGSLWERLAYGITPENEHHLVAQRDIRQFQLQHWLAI

Regarding `Fc1cccc(CN(c2ccc3[nH]ncc3c2)C2CCNCC2)c1` [Compound 53, (3-Fluoro-benzyl)-(1H-indazol-5-yl)-piperidin-4-yl-amine], in assay [1], the Ki was roughly 0.316 nM.

As for `COc1cccc(CN(c2ccc3[nH]ncc3c2)C2CCNCC2)c1` [Compound 54, (1H-Indazol-5-yl)-(3-methoxy-benzyl)-piperidin-4-yl-amine], the Ki in assay [2] is roughly 1.58 nM.

On to `NS(=O)(=O)c1cccc(CN(c2ccc3[nH]ccc3c2)C2CCNCC2)c1` [Compound 69, 3-{[(1H-Indol-5-yl)-piperidin-4-yl-amino]-methyl}-benzenesulfonamide], for which the Ki in assay [3] is roughly 10 nM.

As a reminder, the Ki is the equilibrium dissociation constant of an inhibitor or competing ligand from its target.
